Measured values: US20090325959A1 (priority 2008, published 2009)
pKi: −log10 of the molar value. Like-named read-outs stand apart in the source and are kept apart here.

Legend:
[1] = molecular target: T1, ROCK2 (Homo sapiens, UniProt O75116); assay: Rho kinase inhibition assay (IMAP fluorescence polarization), ROCK2; type: biochemical;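 note: kinase reaction started with 10 µM ATP and run 60 min at room temperature, then phosphorylated substrate captured on IMAP beads for 30 min and fluorescence polarization read in mP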
T1 construct: purchased Upstate/Chemicon 14-451
Experimental: (§1) Following the pre-incubation, 10 μM ATP was added to initiate the reaction. After 60 minutes at room temperature, Molecular Devices IMAP™ binding solution was added to bind phosphorylated substrate. After 30 minutes of incubation in the presence of the IMAP™ beads, the fluorescence polarization was read and the ratio was reported as mP. IC50 values for compounds and EC50 values for ATP were calculated using the Prism software from Graphpad.

[2] = molecular target: T2, p70S6K human enzyme (Homo sapiens, UniProt P23443, T412E); assay: p70S6K inhibition assay (IMAP FP); type: biochemical;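 note: kinase reaction run at room temperature, phosphorylated substrate captured on IMAP beads and read as fluorescence polarization in mP, IC50 then converted to Ki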
T2 construct: purchased Upstate Chemicon 14-486

[3] = molecular target: T3, ROCK1 (Homo sapiens, UniProt Q13464); assay: Rho kinase inhibition assay (IMAP fluorescence polarization), ROCK1; type: biochemical;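 note: kinase reaction run 60 min at room temperature, then phosphorylated substrate captured on IMAP beads for 30 min, with fluorescence polarization read in mP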
T3 construct: purchased Upstate/Chemicon 14-601
Experimental: as §1

[4] = Compound plasma concentrations in unsensitized mice at 15 min post administration; type: in vivo; details: mouse, 15 μmol/kg; mean compound plasma concentration in mice at 15 minutes post oral administration; read-out: Mouse Oral PK
[5] = molecular target: T4, Akt3 human enzyme (Homo sapiens, UniProt Q9Y243); assay: Akt3 inhibition assay (IMAP FP); type: biochemical;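 note: kinase reaction run 60 min at room temperature after 30 µM ATP start, phosphorylated substrate captured on IMAP beads and read as fluorescence polarization (mP)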
T4 construct: purchased Upstate Chemicon 14-502
Experimental: Inhibition of Akt3 and p70S6K activity was determined using the IMAP™ FP Progressive Binding Kit (Molecular Devices product number R8127). […] Following the pre-incubation, 30 μM ATP was added to initiate the reaction. After 60 minutes at RT, Molecular Devices IMAP™ binding solution was added to bind phosphorylated substrate. After 30 minutes of incubation in the presence of the IMAP™ beads the fluorescence polarization was read and the ratio was reported as mP. IC50 results were calculated using the Prism software from Graphpad. The Ki values were determined according to the following formula: Ki=IC50/(1+([ATP Challenge]/EC50 ATP)).

[6] = system: A-10 rat thoracic aorta cells; assay: PDGF-stimulated smooth muscle cell proliferation assay (BrdU incorporation); type: cell-based; details: A-10 cells, 10 ng/mL PDGF, BrdU incorporation, percent of total challenge-stimulated proliferation; for Percent of PDGF Induced Proliferation at 1 μM Avg: 1 μM test compound; for Percent of PDGF Induced Proliferation at 10 μM Avg: 10 μM test compound;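 for all read-outs here: cells kept in serum-free medium, BrdU allowed to incorporate for 24 h, then incorporated label detected fluorometrically with an anti-BrdU antibody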
[7] = 10 μM ATP, read-out: ROCK2 Ki, Avg
[8] = 30 μM ATP, Ki=IC50/(1+([ATP Challenge]/EC50 ATP)), read-out: p70S6K Ki, Avg
[9] = average Ki, read-out: p70S6K Ki
[10] = 30 μM ATP, Ki=IC50/(1+([ATP Challenge]/EC50 ATP)), read-out: Akt3 Ki, Avg

T3 sequence (Q13464 17-535 limits assumed): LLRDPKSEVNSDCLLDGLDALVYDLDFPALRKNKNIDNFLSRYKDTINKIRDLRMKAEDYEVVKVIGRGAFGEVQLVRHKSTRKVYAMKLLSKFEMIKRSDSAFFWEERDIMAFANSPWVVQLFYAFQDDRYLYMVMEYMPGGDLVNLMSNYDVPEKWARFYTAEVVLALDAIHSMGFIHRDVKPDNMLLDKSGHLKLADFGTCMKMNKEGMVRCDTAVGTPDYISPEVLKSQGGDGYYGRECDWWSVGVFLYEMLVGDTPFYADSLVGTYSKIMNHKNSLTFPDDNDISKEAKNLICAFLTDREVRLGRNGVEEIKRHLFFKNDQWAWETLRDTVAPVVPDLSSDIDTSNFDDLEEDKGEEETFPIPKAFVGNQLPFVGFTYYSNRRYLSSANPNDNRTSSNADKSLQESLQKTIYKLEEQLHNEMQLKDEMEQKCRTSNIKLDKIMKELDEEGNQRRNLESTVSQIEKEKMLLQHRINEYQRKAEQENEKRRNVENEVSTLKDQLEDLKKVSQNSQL
T2 sequence (P23443 1-421 T412E limits assumed): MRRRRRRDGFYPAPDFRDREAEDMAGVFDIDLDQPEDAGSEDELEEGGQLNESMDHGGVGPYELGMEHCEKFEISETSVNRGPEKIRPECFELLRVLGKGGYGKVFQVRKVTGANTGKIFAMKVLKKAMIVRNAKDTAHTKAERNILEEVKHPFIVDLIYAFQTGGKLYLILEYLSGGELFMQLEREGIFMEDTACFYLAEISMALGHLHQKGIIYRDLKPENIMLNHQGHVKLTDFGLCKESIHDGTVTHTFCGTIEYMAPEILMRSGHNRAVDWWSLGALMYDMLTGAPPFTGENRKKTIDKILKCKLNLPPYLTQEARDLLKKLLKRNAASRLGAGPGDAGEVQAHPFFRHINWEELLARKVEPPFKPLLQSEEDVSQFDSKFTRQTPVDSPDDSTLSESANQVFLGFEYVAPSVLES
T4 sequence (Q9Y243 whole entry): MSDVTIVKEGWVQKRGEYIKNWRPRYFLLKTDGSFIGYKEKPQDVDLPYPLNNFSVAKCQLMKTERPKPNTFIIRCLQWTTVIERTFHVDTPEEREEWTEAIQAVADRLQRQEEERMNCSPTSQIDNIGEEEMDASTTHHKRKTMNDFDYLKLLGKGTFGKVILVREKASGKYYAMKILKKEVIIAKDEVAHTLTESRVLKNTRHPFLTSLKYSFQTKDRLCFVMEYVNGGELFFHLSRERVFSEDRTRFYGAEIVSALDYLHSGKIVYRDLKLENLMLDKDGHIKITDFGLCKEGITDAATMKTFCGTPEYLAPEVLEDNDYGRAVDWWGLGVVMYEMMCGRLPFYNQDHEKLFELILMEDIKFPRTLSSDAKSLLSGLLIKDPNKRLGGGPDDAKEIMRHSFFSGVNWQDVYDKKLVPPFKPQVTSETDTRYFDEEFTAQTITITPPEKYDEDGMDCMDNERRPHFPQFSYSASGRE
T1 sequence (O75116 11-552 limits assumed): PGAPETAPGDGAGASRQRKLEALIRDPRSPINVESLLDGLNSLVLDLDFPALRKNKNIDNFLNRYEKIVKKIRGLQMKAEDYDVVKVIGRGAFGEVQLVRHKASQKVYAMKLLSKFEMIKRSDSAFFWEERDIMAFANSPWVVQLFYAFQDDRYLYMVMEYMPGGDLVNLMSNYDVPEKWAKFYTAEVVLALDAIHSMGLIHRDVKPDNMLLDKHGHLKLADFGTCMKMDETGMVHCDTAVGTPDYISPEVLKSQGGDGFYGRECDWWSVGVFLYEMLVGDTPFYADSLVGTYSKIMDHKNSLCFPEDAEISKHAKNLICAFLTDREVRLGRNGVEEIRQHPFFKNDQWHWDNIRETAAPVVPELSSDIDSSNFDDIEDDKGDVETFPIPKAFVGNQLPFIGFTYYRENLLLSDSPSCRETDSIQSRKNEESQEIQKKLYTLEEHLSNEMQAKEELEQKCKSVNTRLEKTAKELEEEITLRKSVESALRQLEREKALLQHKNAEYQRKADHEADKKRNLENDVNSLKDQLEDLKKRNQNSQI

| SMILES | pKi [1, 7] | pKi ([1]; average Ki, read-out: ROCK2 Ki) | pKi [2, 8] | pKi [2, 9] | pKi ([3]; Avg, 10 μM ATP) | pKi ([3]; average Ki) | concentration at 15 min [4] [nM] | pKi [5, 10] | pKi ([5]; average Ki, read-out: Akt3 Ki) | Percent of PDGF Induced Proliferation at 1 μM Avg [6] [%] | Percent of PDGF Induced Proliferation at 10 μM Avg [6] [%] |
| --- | --- | --- | --- | --- | --- | --- | --- | --- | --- | --- | --- |
| NC(=O)COc1cccc(CN2CCC[C@H](Nc3ccc4[nH]ncc4c3)C2)c1 [Compound 1.195] | 7.99 | 7.99 | 5.56 | 5.56 | 6.71 | 6.71 | 108 | 4.66 | 4.66 | – | – |
| c1cc(N[C@@H]2CCN(Cc3ccc(C4CC4)cc3)C2)c2ccncc2c1 [Compound 2.022, (R)-N-(1-(4-cyclopropylbenzyl)pyrrolidin-3-yl)isoquinolin-5-amine] | 7.82 | – | 6.30 | – | 7.35 | – | – | 5.39 | – | 89.7 | 39.4 |
| c1cc2cc(CN3CCC[C@H](Nc4ccc5[nH]ncc5c4)C3)ccc2[nH]1 [Compound 1.149, (S)-N-(1-((1H-indol-5-yl)methyl)piperidin-3-yl)-1H-indazol-5-amine] | 8.38 | 8.38 | 5.72 | 5.72 | 7.33 | 7.33 | 1560 | 5.13 | 5.13 | – | – |
| CSc1cccc(CN2CCC[C@H](Nc3ccc4[nH]ncc4c3)C2)c1 [Compound 1.158, (S)-N-(1-(3-(methylthio)benzyl)piperidin-3-yl)-1H-indazol-5-amine] | 8.29 | 8.29 | 5.71 | 5.71 | 7.19 | 7.19 | 102 | 5.23 | 5.23 | – | – |
| c1cc2cc(CN3CCC[C@H](Nc4ccc5[nH]ncc5c4)C3)ccc2o1 [Compound 1.150, (S)-N-(1-(benzofuran-5-ylmethyl)piperidin-3-yl)-1H-indazol-5-amine] | 8.49 | 8.49 | 5.89 | 5.89 | 7.48 | 7.48 | 1390 | 5.50 | 5.50 | – | – |
| CSc1ccc(CN2CCCC(Nc3cccc4cnccc34)C2)cc1 (stereo not shown) [Compound 2.009, N-(1-(4-(methylthio)benzyl)piperidin-3-yl)isoquinolin-5-amine] | – | – | 5.89 | – | – | – | – | 5.43 | – | 128.9 | 56.5 |
| CCCCS(=O)(=O)Nc1cc(CN2CCC[C@H](Nc3ccc4[nH]ncc4c3)C2)ccc1C [Compound 1.236, (S)-N-(5-((3-(1H-indazol-5-ylamino)piperidin-1-yl)methyl)-2-methylphenyl)butane-1-sulfonamide] | 8.68 | 8.68 | 5.56 | 5.56 | 7.31 | 7.31 | 48 | 5.43 | 5.43 | – | – |
| Cc1cccc(CN2CCC[C@H](Nc3ccc4[nH]ncc4c3)C2)c1C [Compound 1.156, (S)-N-(1-(2,3-dimethylbenzyl)piperidin-3-yl)-1H-indazol-5-amine] | 7.89 | 7.89 | 5.49 | 5.49 | 6.87 | 6.87 | 88 | 5.06 | 5.06 | – | – |
| Cc1cccc(CN2CCC[C@H](Nc3ccc4[nH]ncc4c3)C2)c1 [Compound 1.171, (S)-N-(1-(3-methylbenzyl)piperidin-3-yl)-1H-indazol-5-amine] | 7.80 | 7.80 | 5.47 | 5.47 | 6.96 | 6.96 | 369 | 5.03 | 5.03 | – | – |
